Data: US20140228287A1, “1-[(3-CYANO-PYRIDIN-2-YL)METHYL]-3-METHYL-7-(2-BUTYN-1-YL)-8-[3-(R)-AMINO-PIPERIDIN-1-YL]-AXANTHINE FOR THE TREATMENT OF A METABOLIC DISORDER OF A PREDOMINANTLY CARNIVOROUS NON-HUMAN ANIMAL” (BOEHRINGER INGELHEIM VETMEDICA GMBH, priority 2010, published 2014)
pIC50: −log10 of the molar value. Counter-ions that a name gives are not always drawn. Like-named read-outs stand apart in the source and are kept apart here.

Legend:
[1] = target: thrombin (Homo sapiens, UniProt P00734); test: In vitro selectivity, human proteases: thrombin; type: biochemical; details: up to 100 μM
Text: In order to determine the in vitro selectivity of 1-[(3-cyano-pyridin-2-yl)methyl]-3-methyl-7-(2-butyn-1-yl)-8-[3-(R)-amino-piperidin-1-yl]-xanthine, the ability of this compound to inhibit a number of human proteases was investigated as described in Thomas et al. (2008), J. Pharmacol. Exp. Ther., vol. 325, p. 175-182, chapter In vitro DPP-4 Inhibition Assay, p. 176.

[2] = target: T1, DPP IV (Felis catus, UniProt Q9N2I7); test: 60-Day tolerability study of tablets in cats: relative DPP IV activity; type: in vivo, cat; details: percent of day 2 predose
T1 construct: Blood samples for the determination of this compound and DPP IV activity were collected; from tissue; host or cells: plasma of domestic short hair / purpose-bred cats dosed orally
Method: This study was conducted in order to examine the long-term tolerability of a pharmaceutical composition comprising 1-[(3-cyano-pyridin-2-yl)methyl]-3-methyl-7-(2-butyn-1-yl)-8-[3-(R)-amino-piperidin-1-yl]-xanthine monohydrochloride in cats after repeated oral administration for 60-days.
For this purpose, the compound according to the invention has been admixed with standard ingredients to a scored, oblong, brown tablet, size 10×5.5 mm, comprising 1-[(3-cyano-pyridin-2-yl)methyl]-3-methyl-7-(2-butyn-1-yl)-8-[3-(R)-amino-piperidin-1-yl]-xanthine monohydrochloride at 21.68 mg of the chloride per tablet (which equals 20 mg of the free base) and 10% meat flavour.
20 male healthy non-obese cats (Domestic short hair feline) supplied by Liberty Research, Inc., Waverly, N.Y., USA, of an age of 13 to 20 months were used. After an adaptation period of 4 weeks, they were separated into three groups: group 1 (6 members, no. 1 to 6) for placebo treatment, group 2 (7 members, no. 7 to 13) for treatment with 20 mg/cat, group 3 (7 members, no. 14 to 20) for treatment with 40 mg/cat. They were treated once daily in the morning, orally with the respective tablet(s) for 60 days. All animals had fasted over night and were fed 4 hours after the administration. Drinking water was offered ad libitum. Housing conditions etc. were kept constant and equally for all animals; they were kept in groups during the adaptation period and singly during the experimental period.
Relative DPP-IV activity was measured as described above.

[3] = target: T2, plasma DPP IV (Mus musculus, UniProt P28843); test: Inhibition of plasma DPP IV activity in vitro, mouse plasma; type: biochemical
T2 construct: from tissue; host or cells: mouse plasma
Method: Studies were also conducted to assess the inhibitory effect of this compound on plasma DPP IV activity in several species.

[4] = target: T3, plasma DPP IV (Rattus norvegicus, UniProt P14740); test: Plasma DPP IV activity after oral administration, rat; type: in vivo; details: for inhibition at 1 mg/kg: 1 mg/kg oral; for ED50: oral, read-out: ED50 for inhibition of plasma DPP IV activity
T3 construct: from tissue
Method: The effect of 1-[(3-cyano-pyridin-2-yl)methyl]-3-methyl-7-(2-butyn-1-yl)-8-[3-(R)-amino-piperidin-1-yl]-xanthine on plasma DPP IV activity after oral administration was investigated in the rat, the Beagle dog and the Rhesus monkey. These investigations were conducted as described in the following.
Male HanWistar rats (Crl:WI(Han)) were obtained from Charles River (Germany). Animals were fed ad libitum with a standard pelleted diet (Diet No. 3438, Provimi Kliba, Switzerland) and had free access to water. Animals were housed in groups with a 12 h/12 h light/dark cycle (lights out between 6 p.m. and 6 a.m.). The rats were used for the experiment at a body weight of about 260 g. Such freely fed male HanWistar rats (n=5 per group) were administered oral doses of vehicle or 1-[(3-cyano-pyridin-2-yl)methyl]-3-methyl-7-(2-butyn-1-yl)-8-[3-(R)-amino-piperidin-1-yl]-xanthine monohydrochloride at 0.1, 0.3, 1, and 3 mg/kg body weight. Blood samples were drawn from the retrobulbal venous plexus under isoflurane anaesthesia. Blood was collected in EDTA tubes prior to administration of vehicle or 1-[(3-cyano-pyridin-2-yl)methyl]-3-methyl-7-(2-butyn-1-yl)-8-[3-(R)-amino-piperidin-1-yl]-xanthine monohydrochloride and subsequently at 0.5, 1, 2, 3, 4, 7, and 24 hour time points post dose. Plasma was prepared following blood collection and frozen for determination of DPP-IV activity.

[5] = target: T1, DPP IV; test: Exploratory single dose PK/PD (0.3/1.0/3.0 mg/kg) in cats: DPP IV activity; type: in vivo, cat; details: for response vs control in vivo at 0.3 mg/kg: 0.3 mg/kg single oral; for response vs control in vivo at 0.3 mg/kg / response vs control in vivo at 1 mg/kg / response vs control in vivo at 3 mg/kg: read-out: DPP IV activity in cat plasma (0 h = 100%); for response vs control in vivo at 1 mg/kg: 1 mg/kg single oral; for response vs control in vivo at 3 mg/kg: 3 mg/kg single oral
Method: The aim of this first study was to investigate the PK/PD of 1-[(3-cyano-pyridin-2-yl)methyl]-3-methyl-7-(2-butyn-1-yl)-8-[3-(R)-amino-piperidin-1-yl]-xanthine in the cat after a single oral administration of 0, 0.3, 1.0 and 3.0 mg/kg body weight. For this purpose, twelve male clinically healthy adult domestic short hair cats with a body weight range of 3.5-4.5 kg were used. All animals were treated once orally with placebo or the respective 1-[(3-cyano-pyridin-2-yl)methyl]-3-methyl-7-(2-butyn-1-yl)-8-[3-(R)-amino-piperidin-1-yl]-xanthine monohydrochloride dose formulation. Blood samples for the determination of this compound and DPP IV activity were collected at 0 (pre-dose), 0.5, 1, 2, 4, 8, 24, 36, 48, 72 and 96 hours after treatment and the activity of DPP IV was determined like in example 6.
The resulting pharmacodynamic data from this experiment are summarized in following Table 3; the value of 0 h was set to 100% for each treatment.

T1 sequence (Q9N2I7 38-765 limits assumed): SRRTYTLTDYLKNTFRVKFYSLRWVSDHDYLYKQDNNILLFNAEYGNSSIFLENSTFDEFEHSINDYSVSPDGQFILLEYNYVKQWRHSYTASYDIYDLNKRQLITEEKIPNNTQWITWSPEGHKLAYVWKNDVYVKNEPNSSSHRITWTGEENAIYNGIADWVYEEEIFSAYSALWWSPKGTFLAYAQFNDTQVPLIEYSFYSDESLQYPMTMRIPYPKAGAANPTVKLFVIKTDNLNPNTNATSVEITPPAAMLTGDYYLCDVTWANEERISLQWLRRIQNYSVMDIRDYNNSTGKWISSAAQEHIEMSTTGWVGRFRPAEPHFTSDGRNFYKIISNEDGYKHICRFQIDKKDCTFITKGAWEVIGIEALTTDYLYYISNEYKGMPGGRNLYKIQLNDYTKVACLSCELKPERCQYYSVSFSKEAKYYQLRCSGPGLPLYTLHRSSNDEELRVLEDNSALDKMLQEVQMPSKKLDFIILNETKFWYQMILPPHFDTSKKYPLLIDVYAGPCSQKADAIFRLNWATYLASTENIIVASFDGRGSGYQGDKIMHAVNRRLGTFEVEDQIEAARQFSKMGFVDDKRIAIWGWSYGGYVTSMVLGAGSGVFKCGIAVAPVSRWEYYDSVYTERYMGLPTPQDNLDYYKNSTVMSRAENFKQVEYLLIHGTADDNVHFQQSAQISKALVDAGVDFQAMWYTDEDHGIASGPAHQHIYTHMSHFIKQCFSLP
T3 sequence (P14740 37-767 limits assumed): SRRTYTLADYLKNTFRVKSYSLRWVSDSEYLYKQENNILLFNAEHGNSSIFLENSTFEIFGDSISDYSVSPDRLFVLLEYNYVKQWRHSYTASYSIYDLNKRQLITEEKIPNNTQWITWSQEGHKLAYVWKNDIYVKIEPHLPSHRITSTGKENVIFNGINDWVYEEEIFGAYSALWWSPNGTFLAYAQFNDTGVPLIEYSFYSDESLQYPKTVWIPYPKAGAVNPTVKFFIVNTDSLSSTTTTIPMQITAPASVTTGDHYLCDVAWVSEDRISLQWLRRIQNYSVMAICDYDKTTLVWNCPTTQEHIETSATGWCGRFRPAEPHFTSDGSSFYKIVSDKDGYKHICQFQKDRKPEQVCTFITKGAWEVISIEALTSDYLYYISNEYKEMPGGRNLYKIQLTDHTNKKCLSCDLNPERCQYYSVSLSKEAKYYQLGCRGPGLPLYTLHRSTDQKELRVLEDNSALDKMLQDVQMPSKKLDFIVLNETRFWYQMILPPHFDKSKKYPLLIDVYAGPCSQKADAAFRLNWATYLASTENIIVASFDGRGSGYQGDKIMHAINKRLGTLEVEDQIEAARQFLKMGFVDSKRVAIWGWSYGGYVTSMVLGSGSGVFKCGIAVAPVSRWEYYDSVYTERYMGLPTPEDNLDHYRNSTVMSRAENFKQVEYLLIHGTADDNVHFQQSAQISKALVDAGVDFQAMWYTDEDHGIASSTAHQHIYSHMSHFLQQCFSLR
T2 sequence (P28843 37-760 limits assumed): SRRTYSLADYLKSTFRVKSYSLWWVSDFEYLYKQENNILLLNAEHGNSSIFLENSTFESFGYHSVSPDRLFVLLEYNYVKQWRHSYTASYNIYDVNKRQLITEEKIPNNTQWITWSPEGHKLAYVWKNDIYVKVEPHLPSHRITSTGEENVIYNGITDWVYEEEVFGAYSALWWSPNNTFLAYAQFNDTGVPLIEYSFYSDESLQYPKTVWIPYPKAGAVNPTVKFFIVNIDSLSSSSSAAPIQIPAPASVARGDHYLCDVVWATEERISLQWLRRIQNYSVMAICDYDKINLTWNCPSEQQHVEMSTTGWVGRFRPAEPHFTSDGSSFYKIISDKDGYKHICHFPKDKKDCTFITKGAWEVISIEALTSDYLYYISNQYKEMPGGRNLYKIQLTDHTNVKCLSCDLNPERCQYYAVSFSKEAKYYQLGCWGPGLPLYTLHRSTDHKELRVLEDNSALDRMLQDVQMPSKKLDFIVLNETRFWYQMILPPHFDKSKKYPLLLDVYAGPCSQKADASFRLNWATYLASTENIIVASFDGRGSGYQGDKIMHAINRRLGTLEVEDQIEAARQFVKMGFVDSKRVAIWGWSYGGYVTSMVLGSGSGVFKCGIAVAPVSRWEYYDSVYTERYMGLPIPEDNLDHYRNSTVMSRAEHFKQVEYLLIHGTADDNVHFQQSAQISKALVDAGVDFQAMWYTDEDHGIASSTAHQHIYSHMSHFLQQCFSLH

In the case of `CC#CCn1c(N2CCC[C@@H](N)C2)nc2c1c(=O)n(Cc1ncccc1C#N)c(=O)n2C` [1-[(3-cyano-pyridin-2-yl)methyl]-3-methyl-7-(2-butyn-1-yl)-8-[3-(R)-amino-piperidin-1-yl]-xanthine monohydrochloride], the “inhibitory effect on thrombin” value [1] was “did not exert any inhibitory effect”, the “Relative DPP IV activity” value ([2]; Group no. 2 (20 mg daily tablets), Treatment day 60 (1 h after dose)) was 11% and the “Relative DPP IV activity” value ([2]; Group no. 2, excl. animal no. 8 (20 mg daily tablets), Treatment day 60 (predose)) was 17%. For the same molecule, the “Relative DPP IV activity” value ([2]; Group no. 3 (40 mg daily tablets), Treatment day 60 (1 h after dose)) was 10%, the “Relative DPP IV activity” value ([2]; Group no. 3 (40 mg daily tablets), Treatment day 60 (predose)) was 16% and the pIC50 [3] was ~8.77. The inhibition at 1 mg/kg ([4]; 7 hours post dose) was 86%, the inhibition at 1 mg/kg ([4]; 24 hours post dose) was 64% and the ED50 ([4]; 7 h post dose) was 0.4 mg/kg. For the same molecule, the ED50 ([4]; 24 h post dose) was 0.6 mg/kg, the response vs control in vivo at 0.3 mg/kg ([5]; 0.5 h) was 15% and the response vs control in vivo at 0.3 mg/kg ([5]; 1 h) was 13%. The response vs control in vivo at 0.3 mg/kg ([5]; 2 h) was 13%, the response vs control in vivo at 0.3 mg/kg ([5]; 4 h) was 15% and the response vs control in vivo at 0.3 mg/kg ([5]; 8 h) was 19%. It also gave a response vs control in vivo at 0.3 mg/kg ([5]; 24 h) of 54%, a response vs control in vivo at 0.3 mg/kg ([5]; 36 h) of 84% and a response vs control in vivo at 0.3 mg/kg ([5]; 48 h) of 93%. It also gave a response vs control in vivo at 0.3 mg/kg ([5]; 72 h) of 95%, a response vs control in vivo at 0.3 mg/kg ([5]; 96 h) of 95% and a response vs control in vivo at 1 mg/kg ([5]; 0.5 h) of 11%. The response vs control in vivo at 1 mg/kg ([5]; 1 h) was 11%, the response vs control in vivo at 1 mg/kg ([5]; 2 h) was 12% and the response vs control in vivo at 1 mg/kg ([5]; 4 h) was 12%. The response vs control in vivo at 1 mg/kg ([5]; 8 h) was 15%, the response vs control in vivo at 1 mg/kg ([5]; 24 h) was 42% and the response vs control in vivo at 1 mg/kg ([5]; 36 h) was 67%. The response vs control in vivo at 1 mg/kg ([5]; 48 h) was 80%, the response vs control in vivo at 1 mg/kg ([5]; 72 h) was 91% and the response vs control in vivo at 1 mg/kg ([5]; 96 h) was 92%. The response vs control in vivo at 3 mg/kg ([5]; 0.5 h) was 16%, the response vs control in vivo at 3 mg/kg ([5]; 1 h) was 13% and the response vs control in vivo at 3 mg/kg ([5]; 2 h) was 12%. The response vs control in vivo at 3 mg/kg ([5]; 4 h) was 14%, the response vs control in vivo at 3 mg/kg ([5]; 8 h) was 17% and the response vs control in vivo at 3 mg/kg ([5]; 24 h) was 49%. It also gave a response vs control in vivo at 3 mg/kg ([5]; 36 h) of 66%, a response vs control in vivo at 3 mg/kg ([5]; 48 h) of 85% and a response vs control in vivo at 3 mg/kg ([5]; 72 h) of 101%. The response vs control in vivo at 3 mg/kg ([5]; 96 h) was 95% and the “inhibition of DPP IV” value ([5]; all doses (0.3, 1.0, 3.0 mg/kg single oral)) was “more than 80%”.
